Assay results as given in patent publication US20240341171A1 (Semiconductor Energy Laboratory Co., Ltd., priority 2021, published 2024).

Experiments:
[1] = Calculation of solubility parameter (SP value) by molecular dynamics (LAMMPS); settings: calculated SP value against reference SP value of chloroform (approx. 9.4)
Excerpt: The solubility parameter (SP value) δ can be calculated by Formula (1) shown in the following Formula 1 and Formula (2) shown in the following Formula 2, using a cohesive energy density obtained by a molecular dynamics (MD) method using the interaction between molecules in the molecular assembly.
Note that in the above Formula 1 and Formula 2, NA represents Avogadro's constant, V represents a molar volume of a molecular assembly, Ecoh represents a cohesive energy, Eassembly/number of molecules represents an energy per molecule in an assembly, and Eisolated molecule represents energy of each molecule that constitutes the assembly.
As the energy of the assembly (Eassembly) and the energy of each molecule that constitutes the assembly (Eisolated molecule), a three-dimensional coordinate of a molecule that is calculated using LAMMPS, which is an open source software, can be used.
Specifically, an initial state of the molecular assembly in which molecules are arranged at random is generated, using a single material system of molecules whose SP value σ is intended to be calculated. Next, the energy Eassembly of the assembly is calculated by performing a MD calculation using an NTP ensemble until when the energy and the volume go into an equilibrium state. On the other hand, the energy Eisolated molecule of each molecule that constitutes the assembly is calculated in the following manner: the volume and the shape of each molecule that constitutes the assembly are fixed and sampling is performed by the MD calculation using NVT ensemble. Next, statistical processing and substitution into Formula 1 and Formula 2 are performed, whereby the SP value δ is calculated.
First, the energy Eassembly of the assembly of the PTCDI derivatives is calculated. Specifically, an initial state (also referred to as a liquid model) of the molecular assembly which consists of a single system of 100 PTCDI derivatives (shown above as (a) to (i)) arranged at random, is generated. Next, the MD calculation using the NTP ensemble is performed until the energy and the volume go into an equilibrium state. In the MD calculation, samplings of Step 1 under high-temperature and pressure-rising conditions, Step 2 under high-temperature and pressure-rising conditions, Step 3 under high-temperature and high-pressure conditions, Step 4 under high-temperature and normal-pressure conditions, and Step 5 under normal-temperature and normal-pressure conditions are sequentially performed. The energy Eassembly/number of molecules per molecule of the PTCDI derivative is calculated by dividing the calculated value by 100.
The energy Eassembly of the assembly of the solvent is calculated.
Next, the MD calculation using the NTP ensemble is performed until the energy and the volume go into an equilibrium state. […]

[2] = Solubility test of PTCDI compounds (1 mg, solvent added in 1 mL steps, ultrasonic treatment, visual check); assay type: physicochemical; settings: for solubility: in chloroform and tetrahydrofuran, judged visually; for solvent [mL] CHCl3: volume of chloroform needed to dissolve 1 mg of compound; for solvent [mL] THF: volume of tetrahydrofuran needed to dissolve 1 mg of compound
Procedure: In this example, a solubility test for a perylenetetracarboxylic diimide (PTCDI) compounds were performed.
First, 1 mg of each of the PTCDJ compounds represented by (a) to (d) were weighed out and added to transparent containers. Next, (1) 1 mL of a solvent was added, and then ultrasonic treatment was performed for 1 minute. After that, (2) whether the PTCDI compounds were dissolved in the solvents was checked visually.
In each PTCDI compound, aforementioned (1) and (2) were repeated until the PTCDI compounds were dissolved in the solvents. When a solution is colored in yellowish-orange and solids of materials disappear, the PTCDI compounds are regarded to be dissolved.

[3] = reference value from a website; cited from earlier work

Structure (SMILES)	difference in SP value σ CHCl3 [1]	solubility [2]	solvent [mL] CHCl3 [2] [mL]	solvent [mL] THF [2] [mL]	SP value [3]
CN1C(=O)c2ccc3c4ccc5c6c(ccc(c7ccc(c2c37)C1=O)c64)C(=O)N(C)C5=O	2.9	extremely poor	>100	>100	
CCCCCCCCN1C(=O)c2ccc3c4ccc5c6c(ccc(c7ccc(c2c37)C1=O)c64)C(=O)N(CCCCCCCC)C5=O	1.3	improved as compared with that of Me-PTCDI	55	>100	
CCCCC(CC)CN1C(=O)c2ccc3c4ccc5c6c(ccc(c7ccc(c2c37)C1=O)c64)C(=O)N(CC(CC)CCCC)C5=O (centres unmarked)	1.0	improved as compared with that of PTCDI-C8	1	16	
CCC(CC)N1C(=O)c2ccc3c4ccc5c6c(ccc(c7ccc(c2c37)C1=O)c64)C(=O)N(C(CC)CC)C5=O [(d) EtPr-PTCDI, 2,9-di(pentan-3-yl)anthra[2,1,9-def:6,5,10-d′e′f]diisoquinoline-1,3,8,10(2H,9H)-tetraone]	0.9	extremely favorable	1	1	
ClC(Cl)Cl [chloroform]					approximately 9.4 (cal/cm^3)^1/2
